Reference: patent publication US9416115B2, “Fused heterocyclic compounds as ion channel modulators” (Gilead Sciences, Inc., priority 2013, dated 2016)
Like-named read-outs stand apart in the source and are kept apart here.

Key:
[1] = molecular target: T1, wild-type human cardiac sodium channel, hNav1.5 (Homo sapiens, UniProt Q14524); test: Late INa screening assay (QPatch whole cell patch clamp, Tefluthrin-induced late current); type: cell-based; settings: 1 uM; HEK293 hNav1.5; percent block of late INa
T1 sequence (Q14524 whole entry): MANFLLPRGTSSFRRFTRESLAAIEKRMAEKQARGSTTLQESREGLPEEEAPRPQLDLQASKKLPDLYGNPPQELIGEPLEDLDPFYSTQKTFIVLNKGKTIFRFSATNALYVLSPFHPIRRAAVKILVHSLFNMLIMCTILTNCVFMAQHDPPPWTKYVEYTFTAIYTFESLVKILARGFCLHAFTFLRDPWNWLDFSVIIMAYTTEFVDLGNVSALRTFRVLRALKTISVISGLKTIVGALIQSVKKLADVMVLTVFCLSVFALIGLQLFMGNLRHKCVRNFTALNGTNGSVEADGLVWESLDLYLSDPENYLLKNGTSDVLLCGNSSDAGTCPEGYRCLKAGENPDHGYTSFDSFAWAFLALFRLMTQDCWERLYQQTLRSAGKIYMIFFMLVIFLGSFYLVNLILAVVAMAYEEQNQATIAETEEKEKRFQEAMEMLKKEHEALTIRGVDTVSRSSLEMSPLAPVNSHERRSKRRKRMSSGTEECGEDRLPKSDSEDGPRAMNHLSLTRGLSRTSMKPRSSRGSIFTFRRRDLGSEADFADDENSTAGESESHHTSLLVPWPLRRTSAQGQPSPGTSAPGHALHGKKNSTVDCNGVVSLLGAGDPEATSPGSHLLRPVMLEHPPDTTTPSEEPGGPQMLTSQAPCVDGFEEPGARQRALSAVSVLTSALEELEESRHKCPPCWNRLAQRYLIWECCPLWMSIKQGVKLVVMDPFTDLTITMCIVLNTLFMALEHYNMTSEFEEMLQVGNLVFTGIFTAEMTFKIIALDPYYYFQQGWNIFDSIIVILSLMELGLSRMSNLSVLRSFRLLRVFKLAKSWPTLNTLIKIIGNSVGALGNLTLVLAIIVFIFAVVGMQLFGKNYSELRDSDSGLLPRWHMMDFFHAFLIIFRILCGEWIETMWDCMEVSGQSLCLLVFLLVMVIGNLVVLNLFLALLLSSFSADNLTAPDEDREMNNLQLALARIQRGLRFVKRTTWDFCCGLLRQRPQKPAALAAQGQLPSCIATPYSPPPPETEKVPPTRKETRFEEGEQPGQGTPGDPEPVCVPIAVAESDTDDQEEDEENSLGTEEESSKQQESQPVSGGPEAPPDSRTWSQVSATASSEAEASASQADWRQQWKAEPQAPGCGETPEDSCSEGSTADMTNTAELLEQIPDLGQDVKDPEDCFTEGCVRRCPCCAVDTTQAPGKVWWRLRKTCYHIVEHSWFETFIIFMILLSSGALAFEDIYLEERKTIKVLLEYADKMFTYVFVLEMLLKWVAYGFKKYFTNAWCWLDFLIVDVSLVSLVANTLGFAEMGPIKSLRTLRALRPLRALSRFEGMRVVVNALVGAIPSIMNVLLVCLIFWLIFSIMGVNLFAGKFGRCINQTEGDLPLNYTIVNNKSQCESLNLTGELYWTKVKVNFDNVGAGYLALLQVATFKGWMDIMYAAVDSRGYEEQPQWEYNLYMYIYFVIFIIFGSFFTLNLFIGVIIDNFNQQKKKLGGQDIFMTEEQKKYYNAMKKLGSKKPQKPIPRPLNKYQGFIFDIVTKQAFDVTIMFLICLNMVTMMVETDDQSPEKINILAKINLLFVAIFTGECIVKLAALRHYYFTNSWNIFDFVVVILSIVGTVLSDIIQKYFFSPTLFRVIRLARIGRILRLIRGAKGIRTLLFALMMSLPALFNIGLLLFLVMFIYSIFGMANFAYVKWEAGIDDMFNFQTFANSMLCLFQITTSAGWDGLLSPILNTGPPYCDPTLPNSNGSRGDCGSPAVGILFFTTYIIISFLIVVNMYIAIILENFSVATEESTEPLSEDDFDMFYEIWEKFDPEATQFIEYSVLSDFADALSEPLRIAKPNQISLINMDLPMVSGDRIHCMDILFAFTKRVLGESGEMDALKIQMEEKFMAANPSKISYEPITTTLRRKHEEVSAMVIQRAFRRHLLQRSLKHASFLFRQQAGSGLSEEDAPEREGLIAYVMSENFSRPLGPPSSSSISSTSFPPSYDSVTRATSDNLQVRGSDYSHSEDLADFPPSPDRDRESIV
Procedure, shortened: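 HEK293 cells stably expressing hNav1.5 without beta subunits were whole-cell patch clamped at 23-25 °C, stepping from −120 to −20 mV for 250 ms at 0.1 Hz. Late current (240–265 ms) was induced with 10 μM Tefluthrin, and compounds were added typically at 0.3 or 1 μM. Percent block was taken against 0 Na baseline with rundown correction.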

[2] = molecular target: T1, wild-type human cardiac sodium channel, hNav1.5; test: Peak INa screening assay (tonic block and use-dependent block); type: cell-based
Procedure, shortened: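 HEK293 cells stably expressing hNav1.5 (no beta subunits), automated whole-cell patch clamp at 23-25° C, 40 mM Na+ bath (choline substitution), pH 7.35. Compound at 1 or 3 μM, added twice then 200 s equilibration; tonic block by steps to −20 mV from −100 mV at 0.1 Hz, use-dependent block at pulse 50 of a 3 Hz train, rundown-corrected versus compound-free.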

[3] = tonic block of Peak INa, 0.1 Hz, holding -100 mV, read-out: Peak TB 3 uM
[4] = use-dependent block of Peak INa, 3 Hz, pulse 50, read-out: Peak UDB 3 Hz 3 uM

Compound	inhibition at 1 µM [1] [%]	inhibition at 3 µM [2, 3] [%]	inhibition at 3 µM [2, 4] [%]
Fc1cc(C(F)(F)F)ccc1-c1cc2c(OCc3ncccn3)noc2cc1F [Example 33, 6-fluoro-5-(2-fluoro-4-(trifluoromethyl)phenyl)-3-(pyrimidin-2-ylmethoxy)benzo[d]isoxazole]	35.5	20.9	5.1
Cc1nc(C)n(C(C)COc2noc3ccc(-c4ccc(OC(F)(F)F)cc4)cc23)n1 (stereo not drawn) [Example 79, 3-(2-(3,5-dimethyl-1H-1,2,4-triazol-1-yl)propoxy)-5-(4-(trifluoromethoxy)phenyl)benzo[d]isoxazole]	46.1	26	< 5
FC(F)(F)Oc1ccc(-c2ccc3onc(OCc4nccn4-c4ccccc4)c3c2)cc1 [Example 64, 3-((1-phenyl-1H-imidazol-2-yl)methoxy)-5-(4-(trifluoromethoxy)phenyl)benzo[d]isoxazole]	30.7	10.1	< 5
Cc1cc2onc(OCc3ncccn3)c2cc1-c1ccc(OC(F)(F)F)cc1 [Example 26, 6-methyl-3-(pyrimidin-2-ylmethoxy)-5-(4-(trifluoromethoxy)phenyl)benzo[d]isoxazole]	49.6	27.8	< 5
FC(F)(F)Oc1ccc(-c2ccc3onc(OCCn4cnnc4)c3c2)cc1 [Example 63, 3-(2-(4H-1,2,4-triazol-4-yl)ethoxy)-5-(4-(trifluoromethoxy)phenyl)benzo[d]isoxazole]	44.1	39	13.3
Cc1cc(OC(F)(F)F)ccc1-c1cc2c(OCc3ncccn3)noc2cc1C [Example 29, 6-methyl-5-(2-methyl-4-(trifluoromethoxy)phenyl)-3-(pyrimidin-2-ylmethoxy)benzo[d]isoxazole]	46.4	8.1	< 5
COc1cc(-c2ccc(OC(F)(F)F)cc2C)cc2c(OCc3ncccn3)noc12 [Example 25, 7-methoxy-5-(2-methyl-4-(trifluoromethoxy)phenyl)-3-(pyrimidin-2-ylmethoxy)benzo[d]isoxazole]	41.3	12	< 5
Cc1cc(-c2cc3c(OCc4ncccn4)noc3cc2C)ccc1OC(F)(F)F [Example 27, 6-methyl-5-(3-methyl-4-(trifluoromethoxy)phenyl)-3-(pyrimidin-2-ylmethoxy)benzo[d]isoxazole]	35.1	20.8	< 5
FC(F)(F)COc1ccc(-c2ccc3onc(OCc4ncccn4)c3c2)cn1 [Example 21, 3-(pyrimidin-2-ylmethoxy)-5-(6-(2,2,2-trifluoroethoxy)pyridin-3-yl)benzo[d]isoxazole]	48.8	13	< 5
Fc1cc(-c2ccc(OC(F)(F)F)cc2)cc2c(OCc3ncccn3)noc12 [Example 17, 7-fluoro-3-(pyrimidin-2-ylmethoxy)-5-(4-(trifluoromethoxy)phenyl)benzo[d]isoxazole]	45.9	28.9	< 5
OCC1(COc2noc3ccc(-c4ccc(OC(F)(F)F)cc4)cc23)COC1 [Example 97, (3-(((5-(4-(trifluoromethoxy)phenyl)benzo[d]isoxazol-3-yl)oxy)methyl)oxetan-3-yl)methanol]	39	26.5	< 5
